System: APOE-gene deficient mice (BALB/c.KOR/StmSlc-Apoe^shl)
Test: Y maze test of spacial working memory
Format: in vivo
Settings: intake from age of 8 weeks, examined 250 days later (10-month old)
Description: The wild type mice used were BALB/cCrSlc and the APOE-gene deficient mice used were BALB/c.KOR/StmSlc-Apoe^shl.
The cognitive function was measured by the Y maze test (Conrad C D. et al., Brain Res. 1997; 759:76-83). Its principle is as follows. Animals placed in the center of 3 arms in the Y-shape start exploratory behavior after a while. Normal animals rarely return to the arm once explored and explore different arms in turn with the help of marks seen out of the maze. However, model animals with declined space recognition and/or memory go to the same place many times and enter the arm that the animal entered the last time again. In the Y maze test, the order of the arms that an animal entered during a certain period of time is measured and the percentage of the number of times (percent alternation) when the mouse entered all different arms in a consecutive raw of three times as an indicator of space recognition and memory.
Powder feed containing 0.1 g of MgH2 in 1 kg of MF powder feed (a product manufactured by Oriental Yeast Co., ltd.) was produced and the animals were allowed to take the feed freely. […] The control feed was feed containing 0.22 g of Mg(OH)2 per 1 kg of MF powder feed. The feed was changed with fresh feed five times a week.
The control mice were placed for 1 hour in a chamber containing the air five times a week.

Structure (SMILES)	spacial working memory (percent alternation, Y maze, FIG. 4)
[HH] [hydrogen gas]	the decline of spacial working memory was decreased
[H-].[H-].[Mg+2] [MgH2, magnesium hydride]	the decline of spacial working memory was decreased

Reference: US20200196637A1, “COMPOSITION FOR PREVENTION OR TREATMENT OF MILD COGNITIVE […] […] […] AS ACTIVE INGREDIENT” (priority 2016, published 2020)
